Test results reported in US6677338B2, “Serotonin transport inhibitors” (President and Fellows of Harvard College, priority 1997, dated 2004).
“Also recorded” adds a separate entry of the source. Like-named read-outs stand apart in the source and are kept apart here.

How the values were obtained:
[1] = target: T1, human SERT (Homo sapiens, UniProt P31645); experiment: (3H)citalopram binding in HEK-293 cells transfected with the human SERT
T1 construct: expressed in transfected cells; host or cells: HEK-293 (stably or transiently transfected, pcDNA3.1 vector)

[2] = target: T2, Dopamine transporter (DAT) (Macaca fascicularis, UniProt Q9GJT6); experiment: (3H)CFT competition binding in monkey striatum homogenates
T2 construct: in monkey striatum homogenates; from tissue; host or cells: monkey striatum homogenate
Experimental: (§1) Values were determined by fitting data to the equation for competitive binding with EBDA computer program. Data represent the mean ±S.D. of two or more experiments.

[3] = target: T1, human SERT; experiment: (3H)serotonin transport in HEK-293 cells transfected with the human SERT; type: cell-based; conditions: for blocked (3H)serotonin transport (in words): comparable to imipramine, fluoxetine and amitriptyline
[4] = target: T3, Serotonin transporter (SERT) (Macaca mulatta, UniProt Q9MYX0); experiment: (3H)citalopram competition binding in monkey striatum homogenates; conditions: for SERT/DAT Selectivity: fold selectivity for serotonin over dopamine transporter
T3 construct: in monkey striatum homogenates; from tissue; host or cells: monkey striatum homogenate
Experimental: Initial screening procedures for non-amines were conducted in primate striatum, a standard source of brain transporters for drug screening and for generating structure-activity relationships for this series (Table 1). […] The binding experiments were terminated by rapid filtration and radioactivity measured as described above. […] The experiments were performed in triplicate and each value is the mean ±S.E. of 2-5 independent experiments.
as §1

[5] = monkey striatum, 1 nM (3H)CFT, mean ± S.D., read-out: Dopamine transporter (DAT) IC50
[6] = (3H)serotonin transport Ki, HEK-293 cells with human SERT, 20 nM (3H)serotonin, mean ± S.E.M.
[7] = HEK-293 cells with human SERT, 1 nM (3H)citalopram, mean ± S.E.M., read-out: (3H)citalopram binding Ki

T1 sequence (P31645 whole entry): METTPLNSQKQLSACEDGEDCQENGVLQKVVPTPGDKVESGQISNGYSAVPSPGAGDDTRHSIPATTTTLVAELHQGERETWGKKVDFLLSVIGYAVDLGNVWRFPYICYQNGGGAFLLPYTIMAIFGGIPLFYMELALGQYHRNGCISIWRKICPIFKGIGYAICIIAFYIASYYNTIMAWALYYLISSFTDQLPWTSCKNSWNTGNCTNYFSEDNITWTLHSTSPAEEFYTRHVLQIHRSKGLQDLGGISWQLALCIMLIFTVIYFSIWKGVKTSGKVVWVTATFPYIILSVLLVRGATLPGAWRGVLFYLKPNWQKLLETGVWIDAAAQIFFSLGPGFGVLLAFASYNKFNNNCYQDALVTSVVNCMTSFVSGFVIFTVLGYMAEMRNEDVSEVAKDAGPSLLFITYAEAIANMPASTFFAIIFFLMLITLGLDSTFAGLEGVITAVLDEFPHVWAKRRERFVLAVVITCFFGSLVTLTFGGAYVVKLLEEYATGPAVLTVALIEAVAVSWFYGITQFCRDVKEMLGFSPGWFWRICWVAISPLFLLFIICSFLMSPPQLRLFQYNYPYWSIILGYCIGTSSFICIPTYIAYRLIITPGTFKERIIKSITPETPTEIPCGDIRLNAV
T2 sequence (Q9GJT6 whole entry): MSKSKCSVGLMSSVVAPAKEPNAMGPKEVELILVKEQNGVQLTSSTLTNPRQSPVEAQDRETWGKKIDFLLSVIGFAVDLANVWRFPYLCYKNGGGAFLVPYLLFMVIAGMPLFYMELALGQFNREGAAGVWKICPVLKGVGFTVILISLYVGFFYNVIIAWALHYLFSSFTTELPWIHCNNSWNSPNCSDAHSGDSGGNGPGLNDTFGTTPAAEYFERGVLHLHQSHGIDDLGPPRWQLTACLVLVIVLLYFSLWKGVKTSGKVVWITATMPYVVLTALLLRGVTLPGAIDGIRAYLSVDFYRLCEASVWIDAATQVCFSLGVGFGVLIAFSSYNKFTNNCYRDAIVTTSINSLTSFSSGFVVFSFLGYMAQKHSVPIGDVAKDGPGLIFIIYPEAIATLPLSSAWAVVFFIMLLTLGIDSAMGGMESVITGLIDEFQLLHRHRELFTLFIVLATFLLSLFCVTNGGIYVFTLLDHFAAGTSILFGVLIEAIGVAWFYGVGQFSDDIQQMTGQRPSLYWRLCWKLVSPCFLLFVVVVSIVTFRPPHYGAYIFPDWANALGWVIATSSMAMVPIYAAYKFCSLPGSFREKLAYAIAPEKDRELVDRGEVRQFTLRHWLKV
T3 sequence (Q9MYX0 whole entry): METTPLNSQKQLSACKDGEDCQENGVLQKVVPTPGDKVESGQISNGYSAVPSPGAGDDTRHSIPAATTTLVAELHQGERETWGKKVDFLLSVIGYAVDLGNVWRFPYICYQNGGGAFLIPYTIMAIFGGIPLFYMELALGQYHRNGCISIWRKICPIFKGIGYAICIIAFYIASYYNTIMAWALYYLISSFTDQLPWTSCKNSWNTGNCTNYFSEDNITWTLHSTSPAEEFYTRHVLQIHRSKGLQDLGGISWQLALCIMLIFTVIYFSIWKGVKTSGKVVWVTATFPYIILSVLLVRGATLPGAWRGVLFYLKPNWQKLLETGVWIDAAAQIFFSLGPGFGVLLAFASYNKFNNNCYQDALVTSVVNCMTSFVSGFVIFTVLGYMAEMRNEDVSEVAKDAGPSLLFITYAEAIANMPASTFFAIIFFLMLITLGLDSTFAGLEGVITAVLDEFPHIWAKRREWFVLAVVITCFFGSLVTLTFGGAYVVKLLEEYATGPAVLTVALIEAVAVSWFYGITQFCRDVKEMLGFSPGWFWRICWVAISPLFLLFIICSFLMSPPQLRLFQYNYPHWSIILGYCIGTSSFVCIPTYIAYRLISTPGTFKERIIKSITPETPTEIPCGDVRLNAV

Row | Compound | Ki [1] [nM] | IC50 [2, 5] [nM] | Ki [3, 6] [nM] | blocked (3H)serotonin transport (in words) [3] | IC50 [4] [nM] | selectivity for the serotonin over the dopamine transporter (in words) ([4]; monkey striatum) | reduction of potency for the SERT on substitution of the 8-oxa with an 8-carba ([4]; monkey striatum, O-1391 versus O-1072) [fold] | SERT/DAT Selectivity ([4]; monkey striatum) | melting point [°C] | IC50 [2] [nM] | Ki [1, 7] [nM] | Ki [3] [nM] | Ki ([3]; HEK-293 cells with human SERT, 20 nM (3H)serotonin, mean ± S.E.M., read-out: (3H)serotonin transport Ki) [nM]
1 | COC(=O)[C@@H]1[C@H]2CC[C@H](C2)C[C@@H]1c1ccc(Cl)c(Cl)c1 (racemic) [Compound O-1391, 2-β-carbomethoxy-3-β-(3,4-dichlorophenyl)bicyclo(3.2.1)octane] | 10 ± 4.3 | 13.5 ± 0.9 | 11.1 ± 7.44 | low nanomolar range | 33.9 ± 1.85 | relatively non-selective | 7 | 0.4 | – | – | – | – | –
2 | C=C(C)c1ccc(C2CC3CCC(O3)C2C(=O)OC)cc1 (racemic) [Compound O-1739, 2β-carbomethoxy-3β-(4-isopropenylphenyl)-8-oxabicyclo(3.2.1)octane] | 17.7 ± 6.3 | 1020 | 33 ± 2 | low nanomolar range | 19.8 ± 0.75 | – | – | 52 | 72.3 to 73.3 | – | – | – | –
3 | COC(=O)[C@H]1[C@@H](c2ccc(Cl)c(Cl)c2)C[C@@H]2CC[C@H]1O2 (relative stereo) [Compound O-1072, 2-β-carbomethoxy-3-β-(3,4-dichlorophenyl)-8-oxabicyclo(3.2.1)octane] | – | – | 10 to 20 | low nanomolar range | 4.66 ± 1.24 | relatively non-selective | – | 0.8 | – | 3.88 ± 0.93 | – | – | –
4 | COC(=O)[C@H]1[C@@H](c2ccc3ccccc3c2)C[C@@H]2CC[C@H]1N2C (relative stereo) [Compound O-1229, N-methyl-2β-carbomethoxy-3β(2′-naphthyl)-8-azabicyclo(3.2.1)octane] | 1.42 ± 0.78 | – | 0.14 ± 0.07 | – | 2.19 ± 0.18 | – | – | 0.2 | – | 0.49 ± 0.04 | – | – | –
5 | CC#Cc1ccc([C@H]2C[C@@H]3CC[C@@H](O3)[C@H]2C(=O)OC)cc1 (relative stereo) [Compound O-1577] | 32.6 ± 7.88 | 545 ± 76 | 63 ± 16.8 | – | 72.4 | modest | – | 8 | 142 to 143 | – | – | – | –
6 | CC#Cc1ccc([C@@H]2C[C@@H]3CC[C@@H](O3)[C@H]2C(=O)OC)cc1 (relative stereo) [Compound O-1585, 2β-carbomethoxy-3α-(4′-propynylphenyl)-8-oxabicyclo(3.2.1)octane] | 76.1 ± 10.5 | 446 ± 94 | 56.7 ± 10.4 | – | 152 ± 26.5 | moderately selective; also recorded: modest | – | 3 | – | – | – | – | –
7 | COC(=O)[C@@H]1[C@H]2CC[C@H](C2)C[C@@H]1c1ccc2ccccc2c1 (relative stereo) [Compound O-1669, 2β-carbomethoxy-3β-(2-naphthyl)-8-bicyclo(3.2.1)octane] | 289 ± 150 | – | 28 ± 2 | low nanomolar range | 72.5 ± 12.6 | relatively non-selective | – | 0.4 | – | 27.1 ± 0.1 | – | – | –
8 | COC(=O)[C@@H]1[C@H]2CC[C@H](C2)C[C@H]1c1ccc2ccccc2c1 (relative stereo) [Compound O-1670, 2β-carbomethoxy-3α-(2-naphthyl)-8-bicyclo(3.2.1)octane] | – | – | – | – | 77.7 ± 13.5 | relatively non-selective | – | 0.3 | – | 21.2 ± 4.1 | 303 ± 8.7 | 425 ± 332 | –
9 | C=C(C)c1ccc([C@@H]2C[C@@H]3CC[C@@H](O3)[C@H]2C(=O)OC)cc1 (relative stereo) [Compound O-1738, 2β-carbomethoxy-3α-(4-isopropenylphenyl)-8-oxabicyclo(3.2.1)octane] | 218 ± 45.1 | 912 ± 100 | 376 ± 74 | – | 158 ± 23 | moderately selective | – | 6 | – | – | – | – | –
10 | C=C(C)c1ccc(C2CC3CCC(O3)C2C(=O)OC)cc1 (single isomer, unassigned) [Compound O-1809, 2β-carbomethoxy-3β-(4-isopropenylphenyl)-8-oxabicyclo(3.2.1)octane] | 9.6 ± 1.3 | 1010 | 16 ± 4 | low nanomolar range | 10.2 ± 2.1 | – | – | 99 | – | – | – | – | –
11 | COC(=O)C1C(c2ccc3ccccc3c2)CC2CCC1N2C (stereo not drawn) [Compound O-1228, N-methyl-2β-carbomethoxy-3-(2′-naphthyl)-8-azabicyclo(3.2.1)octane] | – | 0.57 ± 0.34 | – | – | – | – | – | – | – | – | 3.26 ± 0.26 | – | 4.57 ± 0.37
